From patent US12448369B2 (Edgewise Therapeutics, Inc., priority 2023, dated 2025)

Key:
[1] = target: T1, Porcine ventricle myofibrils (ventricular myosin ATPase) (Sus scrofa, UniProt P79293); assay: Myofibril ATPase assay, porcine ventricle myofibrils; assay type: biochemical, porcine (Yucatan minipigs); settings: porcine ventricle myofibrils
T1 construct: Myofibrils from porcine cardiac muscle was isolated from the left ventricle of Yucatan minipigs; tissue Exemplar Genetics; host or cells: left ventricle of Yucatan minipigs, myofibrils prepared in house
In short: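 ATPase activity of porcine left-ventricle myofibrils (Yucatan minipig) was followed through PK-LDH coupling as NADH loss at 340 nm, read every 1.5-2 min for 75 min. Slopes were normalised to vehicle wells and fitted to a 4-parameter logistic model. Values are Y75, the concentration giving a 25% drop in activity, or Y125 for activators.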

[2] = system: Porcine atria myofibrils (atrial myosin ATPase); assay: Myofibril ATPase assay, porcine atria myofibrils; assay type: biochemical; settings: porcine atria myofibrils
In short: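 Values are Y75 (concentration cutting ATPase activity to 75% of vehicle) or Y125 (raising it to 125%), taken from 4-parameter logistic fits. Rates come from NADH disappearance at 340 nm in a PK/LDH-coupled assay with porcine atria myofibrils.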

[3] = system: Rabbit Psoas myofibrils (skeletal myosin ATPase); assay: Myofibril ATPase assay, rabbit psoas (skeletal) myofibrils; assay type: biochemical; settings: rabbit psoas myofibrils
In short: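 Myofibrils homogenized in Triton X-100 buffer were assayed in pH 7.0 PIPES with defined Ca2+/EGTA. Myosin-driven ADP formation was coupled to NADH oxidation, with depletion monitored at 340 nm. Each value is the concentration that lowers activity to 75% of vehicle or, for activators, raises it to 125%.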

[4] = Y75 value (75% activity relative to no compound)
[5] = ‡ Y125 value, not a Y75 value (125% activity relative to no compound)

T1 sequence (P79293 whole entry): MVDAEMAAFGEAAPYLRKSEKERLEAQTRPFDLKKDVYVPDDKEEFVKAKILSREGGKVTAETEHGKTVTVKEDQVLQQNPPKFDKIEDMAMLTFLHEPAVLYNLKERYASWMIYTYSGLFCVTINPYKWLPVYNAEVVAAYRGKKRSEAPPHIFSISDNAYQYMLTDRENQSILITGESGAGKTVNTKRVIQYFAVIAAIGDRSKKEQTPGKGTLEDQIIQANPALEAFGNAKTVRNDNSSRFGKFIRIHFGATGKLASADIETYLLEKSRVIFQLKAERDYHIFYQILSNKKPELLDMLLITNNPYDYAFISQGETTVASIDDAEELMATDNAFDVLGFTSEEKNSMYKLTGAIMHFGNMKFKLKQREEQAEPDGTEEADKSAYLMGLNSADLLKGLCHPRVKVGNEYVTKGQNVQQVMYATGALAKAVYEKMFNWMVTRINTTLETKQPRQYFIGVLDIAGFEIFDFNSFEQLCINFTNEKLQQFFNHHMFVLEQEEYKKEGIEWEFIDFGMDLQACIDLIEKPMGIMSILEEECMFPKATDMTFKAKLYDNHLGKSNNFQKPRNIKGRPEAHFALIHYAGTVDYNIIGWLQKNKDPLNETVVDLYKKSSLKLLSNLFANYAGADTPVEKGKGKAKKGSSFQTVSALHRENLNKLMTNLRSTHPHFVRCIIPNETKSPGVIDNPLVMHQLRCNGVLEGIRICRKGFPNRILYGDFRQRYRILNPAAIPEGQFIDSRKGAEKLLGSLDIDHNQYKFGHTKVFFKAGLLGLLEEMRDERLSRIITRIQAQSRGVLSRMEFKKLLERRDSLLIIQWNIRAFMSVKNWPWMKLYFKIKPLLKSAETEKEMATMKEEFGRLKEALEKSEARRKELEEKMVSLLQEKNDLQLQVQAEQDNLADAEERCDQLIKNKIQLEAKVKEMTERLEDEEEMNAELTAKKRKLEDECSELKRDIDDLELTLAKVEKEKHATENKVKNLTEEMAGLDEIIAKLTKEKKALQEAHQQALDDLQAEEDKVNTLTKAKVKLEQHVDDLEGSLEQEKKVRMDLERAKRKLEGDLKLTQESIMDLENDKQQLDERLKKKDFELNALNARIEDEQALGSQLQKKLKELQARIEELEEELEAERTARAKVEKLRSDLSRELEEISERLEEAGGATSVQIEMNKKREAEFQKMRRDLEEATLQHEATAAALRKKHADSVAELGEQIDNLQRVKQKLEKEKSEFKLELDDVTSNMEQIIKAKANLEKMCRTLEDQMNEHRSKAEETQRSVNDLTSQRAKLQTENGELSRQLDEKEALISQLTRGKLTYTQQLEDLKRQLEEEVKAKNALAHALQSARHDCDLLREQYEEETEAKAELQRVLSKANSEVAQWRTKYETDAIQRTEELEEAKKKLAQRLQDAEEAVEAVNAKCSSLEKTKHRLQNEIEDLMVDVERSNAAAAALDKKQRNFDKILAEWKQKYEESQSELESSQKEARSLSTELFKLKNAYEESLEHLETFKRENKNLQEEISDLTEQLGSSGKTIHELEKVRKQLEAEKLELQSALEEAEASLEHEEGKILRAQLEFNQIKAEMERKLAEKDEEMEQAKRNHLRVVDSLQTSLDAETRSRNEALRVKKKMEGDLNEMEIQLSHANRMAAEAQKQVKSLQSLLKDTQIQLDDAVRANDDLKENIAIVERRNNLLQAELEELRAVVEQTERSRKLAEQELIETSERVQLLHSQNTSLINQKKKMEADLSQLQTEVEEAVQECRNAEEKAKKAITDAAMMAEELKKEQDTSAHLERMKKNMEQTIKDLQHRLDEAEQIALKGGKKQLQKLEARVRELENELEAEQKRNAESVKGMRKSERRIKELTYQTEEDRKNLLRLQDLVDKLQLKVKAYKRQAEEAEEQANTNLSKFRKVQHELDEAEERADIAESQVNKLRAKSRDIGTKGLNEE

| Compound | Ventricular EC25 ([1]; Y75 value) [µM] | Atrial EC25 [2, 4] [nM] | Skeletal EC25 ([3]; Y75 value) [µM] | Ventricular EC25 ([1]; Y75 value (no ‡ mark)) [µM] | Atrial EC25 ([2]; Y75 value (no ‡ mark)) [nM] | Skeletal EC25 ([3]; Y75 value (no ‡ mark)) [µM] | Ventricular EC25 [1, 5] | Skeletal EC25 [3, 5] |
| --- | --- | --- | --- | --- | --- | --- | --- | --- |
| Cc1c(CC(=O)N[C@@H](C)c2ccc(F)cc2F)c(=O)[nH]c2ccnc(OCC(C)(C)F)c12 [compound 372] | 100.00 | 100000 | 1.61 | – | – | – | – | – |
| Cc1cc([C@H](C)NC(=O)Cc2c(C)c3cc(F)ccc3[nH]c2=O)ncc1F [compound 1061] | – | – | – | 100.00 | 2490 | 100.00 | – | – |
| Cc1c(CC(=O)N[C@@H](CO)c2ccc(F)cc2F)c(=O)[nH]c2ccnc(OC3CC3)c12 [compound 200] | 100.00 | 3030 | 0.19 | – | – | – | – | – |
| Cc1nccc2[nH]c(=O)c(CC(=O)N[C@@H](C)c3ccc(S(C)(=O)=O)cc3F)c(C)c12 (single isomer, unassigned) [compound 207] | 100.00 | 100000 | 1.32 | – | – | – | – | – |
| Cc1c(CC(=O)N[C@@H](C)c2ccc(C#N)cn2)c(=O)[nH]c2ccc(F)c(C3CC3)c12 [compound 24] | – | – | – | 0.21 | 50 | 0.04 | – | – |
| C[C@H](NC(=O)Cc1cc2c(OCC(F)(F)F)nccc2[nH]c1=O)c1ccc(F)cc1F [compound 436] | 100.00 | 100000 | 12.92 | – | – | – | – | – |
| Cc1c(C(F)(F)C(=O)N[C@@H](C)c2cc(C#N)ccn2)c(=O)[nH]c2ccc(F)cc12 (single isomer, unassigned) [compound 2576] | – | – | – | 100.00 | 38950 | 76.36 | – | – |
| Cc1c(C(F)(F)C(=O)N[C@H](C)c2ncc(C#N)cn2)c(=O)[nH]c2cccc(C#N)c12 (single isomer, unassigned) [compound 4838] | – | – | – | 3.58 | 920 | 0.28 | – | – |
| C[C@H](NC(=O)Cc1cc2ccccc2[nH]c1=O)c1ccc(F)cc1F [compound 137] | – | – | – | 3.33 | 1120 | 0.19 | – | – |
| Cc1c(CC(=O)N[C@H](C)c2ncc(C#N)cc2F)c(=O)[nH]c2cccc(F)c12 [compound 51] | – | – | – | 0.40 | 230 | 0.06 | – | – |
| C[C@H](NC(=O)C1(c2cc3cc(F)ccc3[nH]c2=O)CC1)c1cc(C#N)ccn1 (single isomer, unassigned) [compound 2537] | – | – | – | – | 100000 | – | 100.00‡ μM | 100.00‡ μM |
| C[C@H](NC(=O)[C@H](C)c1cc2cnccc2[nH]c1=O)c1ccc(F)cc1F (single isomer, unassigned) [compound 443] | 100.00 | 100000 | 1.34 | – | – | – | – | – |
| Cc1c(CC(=O)N[C@@H](CO)c2ccc(C#N)cc2F)c(=O)[nH]c2ccnc(C#N)c12 (single isomer, unassigned) [compound 242] | 0.52 | 90 | 0.02 | – | – | – | – | – |
| Cc1c(CC(=O)N[C@@H](C)c2ccc(C#N)cn2)c(=O)[nH]c2ccc(F)c(C#N)c12 [compound 50] | – | – | – | 0.23 | 50 | 0.02 | – | – |
| CC(=O)N1C[C@H](NC(=O)Cc2c(C)c3c(C)nccc3[nH]c2=O)c2c(F)cc(F)cc21 [compound 206] | 100.00 | 100000 | 0.40 | – | – | – | – | – |
| Cc1c(F)ccc2[nH]c(=O)c(C(F)(F)C(=O)N[C@H](C)c3ncc(C#N)cc3F)c(C#N)c12 (single isomer, unassigned) [compound 2519] | – | – | – | 1.19 | 310 | 0.52 | – | – |

| Compound | Ventricular EC25 ([1]; Y75 value) [µM] | Atrial EC25 [2, 4] [nM] | Skeletal EC25 ([3]; Y75 value) [µM] | Ventricular EC25 ([1]; Y75 value (no ‡ mark)) [µM] | Atrial EC25 ([2]; Y75 value (no ‡ mark)) [nM] | Skeletal EC25 ([3]; Y75 value (no ‡ mark)) [µM] | Ventricular EC25 [1, 5] | Skeletal EC25 [3, 5] |
| --- | --- | --- | --- | --- | --- | --- | --- | --- |
| Cc1c(CC(=O)N[C@@H](C)c2ccc(F)cc2F)c(=O)[nH]c2ccnc(OC3CC3)c12 [compound 386] | 1.51 | 120 | 0.03 | – | – | – | – | – |
| Cc1nccc2[nH]c(=O)c(CC(=O)N[C@@H](C)c3cnc(C#N)cn3)c(C)c12 [compound 487] | 3.42 | 100000 | 3.42 | – | – | – | – | – |
| Cc1c(CC(=O)N[C@H](C)c2ccc(C#N)cn2)c(=O)[nH]c2ccnc(C(F)(F)F)c12 [compound 155] | 62.81 | 6060 | 1.24 | – | – | – | – | – |
| Cc1c(CC(=O)N[C@@H](C)c2ccc(F)cc2F)c(=O)[nH]c2cccc(F)c12 [compound 130] | – | – | – | 0.15 | 20 | 0.03 | – | – |
| Cc1nc([C@@H](C)NC(=O)Cc2c(C)c3c(C)nccc3[nH]c2=O)ncc1C#N [compound 478] | 33.12 | 5840 | 65.26 | – | – | – | – | – |
| C[C@H](NC(=O)C1(c2cc3cc(F)ccc3[nH]c2=O)CC1)c1cccc(C#N)n1 (single isomer, unassigned) [compound 2535] | – | – | – | – | 100000 | – | 85.38‡ μM | 51.07‡ μM |
| Cc1c(CC(=O)N[C@H](CO)c2ccc(F)cc2F)c(=O)[nH]c2ccnc(C(F)(F)F)c12 [compound 231] | 100.00 | 100000 | 100.00 | – | – | – | – | – |
| Cc1c(CC(=O)N[C@@H](CO)c2ncc(F)cc2F)c(=O)[nH]c2ccnc(C#N)c12 [compound 262] | 0.67 | 190 | 0.13 | – | – | – | – | – |
| Cc1nccc2[nH]c(=O)c(CC(=O)N[C@@H]3COc4cc(C#N)cc(F)c43)c(C)c12 (single isomer, unassigned) [compound 177] | 0.09 | 60 | 0.02 | – | – | – | – | – |
| Cc1c(C(C)C(=O)N[C@@H](C)c2ccc(F)cc2F)c(=O)[nH]c2ccnc(C#N)c12 (stereo partly drawn) [compound 363] | 2.83 | 360 | 0.04 | – | – | – | – | – |
| Cc1nccc2[nH]c(=O)c(CC(=O)N[C@@H](C)c3c(F)cc(F)cc3F)c(C)c12 [compound 500] | 70 | 43000 | 2.3 | – | – | – | – | – |
| Cc1cccc([C@@H](C)NC(=O)Cc2c(C)c3c(C)nccc3[nH]c2=O)c1 (single isomer, unassigned) [compound 339] | 100.00 | 100000 | 100.00 | – | – | – | – | – |
| Cc1c(CC(=O)N[C@@H](C)c2ncc(C#N)cc2F)c(=O)[nH]c2ccc(F)c(C#N)c12 [compound 32] | – | – | – | 0.04 | 50 | 0.01 | – | – |
| C[C@H](NC(=O)C(F)(F)c1cc2c(C#N)c(F)ccc2[nH]c1=O)c1ncc(C#N)cc1F (single isomer, unassigned) [Compound 2530] | – | – | – | 0.21 | 200 | 0.08 | – | – |
| Cc1ccccc1[C@@H](CO)NC(=O)Cc1c(C)c2c(C)nccc2[nH]c1=O (single isomer, unassigned) [compound 337] | 100.00 | 100000 | 100.00 | – | – | – | – | – |
| Cc1c(CC(=O)N[C@H](C)c2ccc(C#N)cc2F)c(=O)[nH]c2ccnc(C#N)c12 (single isomer, unassigned) [compound 282] | 1.16 | 1550 | 0.35 | – | – | – | – | – |
